The source of these data is PubChem BioAssay AID330 (DTP/NCI, 2004).

Several values for one entry are separate records, joined by “and”; a condition that tells them apart may be missing. Equal entries are not always repeated. Inconclusive results and toxic doses are left out.

The assay deals with P388 leukemia ip, CD2F1 mice, survival T/C. Put plainly: NCI In Vivo Anticancer Drug Screen. Data for tumor model P388 Leukemia (intraperitoneal) in CD2F1 (CDF1) mice. The following applies: endpoint: median survival time, higher = longer survival. The method, boiled down:
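Mice carrying the transplanted tumor received test compound or vehicle. Survival was recorded in each group, and the value is the treated-group measurement divided by that of the vehicle-treated control group.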

The mark [1] stands for this setting: dose: 50.0 mg/kg/injection, schedule: Q01DX009 (ip), vehicle: Klucel (hydroxypropylcellulose) (HPC).
Setting [2] is: dose: 100.0 mg/kg/injection, schedule: Q01DX009 (ip), vehicle: Klucel (hydroxypropylcellulose) (HPC).
Setting [3] is: dose: 200.0 mg/kg/injection, schedule: Q01DX009 (ip), vehicle: Klucel (hydroxypropylcellulose) (HPC).
The mark [4] stands for this setting: dose: 100.0 mg/kg/injection, schedule: Q01DX001 (ip), vehicle: Klucel (hydroxypropylcellulose) (HPC).
Setting [5] is: dose: 200.0 mg/kg/injection, schedule: Q01DX001 (ip), vehicle: Klucel (hydroxypropylcellulose) (HPC).
[6] abbreviates: dose: 400.0 mg/kg/injection, schedule: Q01DX001 (ip), vehicle: Klucel (hydroxypropylcellulose) (HPC).
Where [7] appears, read: dose: 100.0 mg/kg/injection, schedule: Q04DX002 (ip), vehicle: Klucel (hydroxypropylcellulose) (HPC).
The mark [8] stands for this setting: dose: 60.0 mg/kg/injection, schedule: Q01DX005 (ip), vehicle: saline with Tween-80.
Setting [9] is: dose: 120.0 mg/kg/injection, schedule: Q01DX005 (ip), vehicle: saline with Tween-80.
Where [10] appears, read: dose: 240.0 mg/kg/injection, schedule: Q01DX005 (ip), vehicle: saline with Tween-80.

For the compound `Cc1[nH]ccc2c(C)c3nc4ccccc4c3cc12`, the T/C was 108 % of control (dose: 6.25 mg/kg/injection, schedule: Q04DX002 (ip), vehicle: water); 121 % of control (dose: 12.5 mg/kg/injection, schedule: Q04DX002 (ip), vehicle: water); 163 % of control (dose: 25.0 mg/kg/injection, schedule: Q01DX009 (ip), vehicle: saline with Tween-80); 123 % of control (dose: 25.0 mg/kg/injection, schedule: Q04DX002 (ip), vehicle: water); 113 % of control (dose: 50.0 mg/kg/injection, schedule: Q01DX009 (ip), vehicle: saline with Tween-80); 153 % of control (dose: 100.0 mg/kg/injection, schedule: Q04DX002 (ip), vehicle: water). Moreover, the T/C is 157 % of control (dose: 160.0 mg/kg/injection, schedule: Q04DX002 (ip), vehicle: distilled water + Tween-80); 166 % of control (dose: 200.0 mg/kg/injection, schedule: Q04DX002 (ip), vehicle: water); 188 % of control (dose: 320.0 mg/kg/injection, schedule: Q04DX002 (ip), vehicle: distilled water + Tween-80).
Consider `CC(=O)Oc1ccc2ccc(=O)oc2c1OC(C)=O`, for which the T/C is, setting by setting: (dose: 25.0 mg/kg/injection, schedule: Q01DX009 (ip), vehicle: Klucel (hydroxypropylcellulose) (HPC)) 102 % of control; under setting [1], 101 % of control; under setting [2], 109 % of control; under setting [3], 118 % of control.
Take `CCOC(=O)c1csc(CCNC(=O)c2ccccc2)n1`: the T/C (dose: 12.5 mg/kg/injection, schedule: Q01DX009 (ip), vehicle: other) was 103 % of control; the T/C (dose: 25.0 mg/kg/injection, schedule: Q01DX009 (ip), vehicle: other) is 102 % of control; the T/C (dose: 50.0 mg/kg/injection, schedule: Q01DX009 (ip), vehicle: other) is 94 % of control; the T/C (dose: 100.0 mg/kg/injection, schedule: Q01DX009 (ip), vehicle: other) is 94 % of control; the T/C (dose: 200.0 mg/kg/injection, schedule: Q01DX009 (ip), vehicle: other) was 89 % of control.
In the case of `Cc1cc(Cl)nn2cc(CC(=O)O)nc12`, the T/C under setting [4] is 100 % of control, the T/C under setting [5] is 104 % of control and the T/C under setting [6] is 98 % of control.
With `OC1CCC(O)C1` (stereo unspecified), the T/C is 100 % of control (dose: 50.0 mg/kg/injection, schedule: Q01DX005 (ip), vehicle: saline); 105 % of control (dose: 100.0 mg/kg/injection, schedule: Q01DX005 (ip), vehicle: saline); 98 % of control (dose: 200.0 mg/kg/injection, schedule: Q01DX005 (ip), vehicle: saline).
On to `CC1CC(O)C(O)(c2ccccc2)CC1C` (stereo unspecified), for which the T/C was 104 % of control under setting [4], 101 % of control under setting [5] and 99 % of control under setting [6].
In the case of `O=C(OCc1ccccc1)N1C[C@@H](Br)[C@H](Br)[C@H]1Cc1ccccc1`, the T/C reads like this: (dose: 100.0 mg/kg/injection, schedule: Q01DX001 (ip), vehicle: distilled water + alcohol) 95 % of control; (dose: 200.0 mg/kg/injection, schedule: Q01DX001 (ip), vehicle: distilled water + alcohol) 100 % of control.
For the compound `O=C1c2ccccc2OC2CCON12` (stereo unspecified), the T/C was 100 % of control under setting [1], 100 % of control under setting [2] and 116 % of control under setting [3].
Consider `CC/C(=C(/CC)c1ccc(OCC(=O)N/N=C2\CCC3C4CCc5cc(O)ccc5C4=CCC23C)cc1)c1ccc(OCC(=O)N/N=C2/CCC3C4CCc5cc(O)ccc5C4=CCC23C)cc1` (stereo unspecified), for which the T/C runs as follows: (dose: 50.0 mg/kg/injection, schedule: Q01DX001 (ip), vehicle: Klucel (hydroxypropylcellulose) (HPC)) 96 % of control; under setting [4], 95 % of control; under setting [5], 87 % of control.
`CSc1nccc(=O)n1-c1ccccc1F`: the T/C (dose: 25.0 mg/kg/injection, schedule: Q04DX002 (ip), vehicle: Klucel (hydroxypropylcellulose) (HPC)) was 102 % of control; the T/C (dose: 50.0 mg/kg/injection, schedule: Q04DX002 (ip), vehicle: Klucel (hydroxypropylcellulose) (HPC)) was 104 % of control; the T/C under setting [7] is 102 % of control.
`O=C1c2ccc([N+](=O)[O-])cc2C(=O)N1CC[P+](c1ccccc1)(c1ccccc1)c1ccccc1`: the T/C is 100 % of control (dose: 0.78 mg/kg/injection, schedule: Q01DX009 (ip), vehicle: water); 100 % of control (dose: 1.56 mg/kg/injection, schedule: Q01DX009 (ip), vehicle: water); 103 % of control (dose: 3.13 mg/kg/injection, schedule: Q01DX009 (ip), vehicle: water); 98 % of control (dose: 6.25 mg/kg/injection, schedule: Q01DX009 (ip), vehicle: water); 98 % of control (dose: 12.5 mg/kg/injection, schedule: Q01DX009 (ip), vehicle: water); 106 % of control and 107 % of control (dose: 25.0 mg/kg/injection, schedule: Q01DX009 (ip), vehicle: water).
On to `CCc1nc(NCCCCCCCCNc2nc(C)c(-c3ccccc3O)c(CC)n2)nc(C)c1-c1ccccc1O`, for which the T/C was 93 % of control (dose: 100.0 mg/kg/injection, schedule: Q04DX003 (ip), vehicle: saline); 94 % of control (dose: 200.0 mg/kg/injection, schedule: Q04DX003 (ip), vehicle: saline); 86 % of control (dose: 400.0 mg/kg/injection, schedule: Q04DX003 (ip), vehicle: saline).
Take `Fc1ccc(NC(=S)SCc2ccc3c(c2)OCO3)cc1F`: the T/C was 119 % of control under setting [1], 102 % of control under setting [2] and 86 % of control under setting [3].
Take `CC(/C=N\NC(=S)SCc1ccccc1)=N/NC(N)=S`: the T/C runs as follows: (dose: 100.0 mg/kg/injection, schedule: Q01DX001 (ip), vehicle: saline) 106 % of control; (dose: 200.0 mg/kg/injection, schedule: Q01DX001 (ip), vehicle: saline) 106 % of control; (dose: 400.0 mg/kg/injection, schedule: Q01DX001 (ip), vehicle: saline) 103 % of control.
On to `CC(=O)OC1C=CC2Oc3ccc(C)cc3C1(C)O2` (stereo unspecified), for which the T/C under setting [8] was 93 % of control, the T/C under setting [9] is 106 % of control and the T/C under setting [10] is 101 % of control.
Take `Clc1ccc2c(c1)C1CN(C2)Cc2ccc(Cl)cc21`: the T/C (dose: 100.0 mg/kg/injection, schedule: Q01DX001 (ip), vehicle: saline with Tween-80) was 101 % of control; the T/C (dose: 200.0 mg/kg/injection, schedule: Q01DX001 (ip), vehicle: saline with Tween-80) is 87 % of control; the T/C (dose: 400.0 mg/kg/injection, schedule: Q01DX001 (ip), vehicle: saline with Tween-80) is 93 % of control.
Regarding `CN1C(=O)C(=O)N(Cc2ccc(CN3C(=O)C(=O)N(C)C3=O)cc2)C1=O`, the T/C was 101 % of control under setting [1], 103 % of control under setting [2] and 100 % of control under setting [3].
`COC(=O)C1C2C=CC(C1C(=O)OC)C1C(C(=O)NN)C(C(=O)NN)C21` (stereo unspecified): the T/C reads like this: under setting [8], 98 % of control; under setting [9], 97 % of control; under setting [10], 96 % of control.
As to `Cc1ccc(-c2cs/c(=N\N=C3/CSC(=O)N3Cc3ccccc3)n2-c2ccccc2)cc1`, the T/C was 98 % of control under setting [7] and 89 % of control (dose: 200.0 mg/kg/injection, schedule: Q04DX002 (ip), vehicle: Klucel (hydroxypropylcellulose) (HPC)).
Consider `O=C1c2c(O)cccc2C(Br)c2cccc(O)c21`, for which the T/C by setting is: (dose: 60.0 mg/kg/injection, schedule: Q01DX005 (ip), vehicle: Klucel (hydroxypropylcellulose) (HPC)) 107 % of control; (dose: 120.0 mg/kg/injection, schedule: Q01DX005 (ip), vehicle: Klucel (hydroxypropylcellulose) (HPC)) 114 % of control; (dose: 240.0 mg/kg/injection, schedule: Q01DX005 (ip), vehicle: Klucel (hydroxypropylcellulose) (HPC)) 98 % of control.
Turning to `c1ccc(Nc2nnnn2-c2ccccc2)cc1`, the T/C by setting is: (dose: 25.0 mg/kg/injection, schedule: Q01DX005 (ip), vehicle: saline with Tween-80) 100 % of control; (dose: 50.0 mg/kg/injection, schedule: Q01DX005 (ip), vehicle: saline with Tween-80) 100 % of control; (dose: 100.0 mg/kg/injection, schedule: Q01DX005 (ip), vehicle: saline with Tween-80) 104 % of control.
Regarding `COC(=O)CCC(N=C(OC)c1ccccc1)C(=O)OC` (stereo unspecified), the T/C reads like this: (dose: 50.0 mg/kg/injection, schedule: Q01DX005 (ip), vehicle: Klucel (hydroxypropylcellulose) (HPC)) 98 % of control; (dose: 100.0 mg/kg/injection, schedule: Q01DX005 (ip), vehicle: Klucel (hydroxypropylcellulose) (HPC)) 103 % of control; (dose: 200.0 mg/kg/injection, schedule: Q01DX005 (ip), vehicle: Klucel (hydroxypropylcellulose) (HPC)) 101 % of control.
